The values below come from patent US9409866B2, “Pyridine-2-amides useful as CB2 agonists” (Hoffmann-La Roche Inc., priority 2012, dated 2016).

The target of one assay is human CB2 receptors (Homo sapiens (Human), UniProt P34972). In words: functional cAMP assay, CHO cells expressing human CB2. Format: cell-based. The procedure: (§1) CHO cells expressing human CB1 or CB2 receptors are seeded 17-24 hours prior to the experiment 50.000 cells per well in a black 96 well plate with flat clear bottom (Corning Costar #3904) in DMEM (Invitrogen No. 31331), 1×HT supplement, with 10% fetal calf serum and incubated at 5% CO2 and 37° C. in a humidified incubator. The growth medium was exchanged with Krebs Ringer Bicarbonate buffer with 1 mM IBMX and incubated at 30° C. for 30 min. Compounds were added to a final assay volume of 100 μl and incubated for 30 min at 30° C. Using the cAMP-Nano-TRF detection kit the assay (Roche Diagnostics) was stopped by the addition of 50 μl lysis reagent (Tris, NaCl, 1.5% Triton X100, 2.5% NP40, 10% NaN3) and 50 μl detection solutions (20 μM mAb Alexa700-cAMP 1:1, and 48 μM Ruthenium-2-AHA-cAMP) and shaken for 2 h at room temperature. The time-resolved energy transfer is measured by a TRF reader (Evotec Technologies GmbH), equipped with a ND:YAG laser as excitation source. The plate is measured twice with the excitation at 355 nm and at the emission with a delay of 100 ns and a gate of 100 ns, total exposure time 10 s at 730 (bandwidth 30 nm) or 645 nm (bandwidth 75 nm), respectively. The FRET signal is calculated as follows: FRET=T730-Alexa730-P(T645-B645) with P=Ru730-B730/Ru645-B645, where T730 is the test well measured at 730 nM, T645 is the test well measured at 645 nm, B730 and B645 are the buffer controls at 730 nm and 645 nm, respectively. cAMP content is determined from the function of a standard curve spanning from 10 μM to 0.13 nM cAMP.
human CB2 receptors, sequence (P34972 whole entry): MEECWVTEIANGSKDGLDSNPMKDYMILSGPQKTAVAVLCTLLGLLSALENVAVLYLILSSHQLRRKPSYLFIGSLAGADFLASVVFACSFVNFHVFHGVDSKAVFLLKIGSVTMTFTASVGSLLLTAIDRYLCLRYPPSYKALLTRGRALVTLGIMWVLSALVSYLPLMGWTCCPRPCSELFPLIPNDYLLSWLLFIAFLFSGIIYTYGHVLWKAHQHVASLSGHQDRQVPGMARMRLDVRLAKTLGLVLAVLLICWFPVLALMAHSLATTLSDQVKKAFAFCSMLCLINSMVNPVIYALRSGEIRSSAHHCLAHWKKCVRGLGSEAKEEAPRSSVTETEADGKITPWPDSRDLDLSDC
(§2) EC50 values were determined using Activity Base analysis (ID Business Solution, Limited). The EC50 values for a wide range of cannabinoid agonists generated from this assay were in agreement with the values published in the scientific literature.

The target in the next assay is human CB1 receptors (Homo sapiens (Human), UniProt P21554). Put plainly: functional cAMP assay, CHO cells expressing human CB1. Format: cell-based. The procedure: as §1, §2
human CB1 receptors, sequence (P21554 whole entry): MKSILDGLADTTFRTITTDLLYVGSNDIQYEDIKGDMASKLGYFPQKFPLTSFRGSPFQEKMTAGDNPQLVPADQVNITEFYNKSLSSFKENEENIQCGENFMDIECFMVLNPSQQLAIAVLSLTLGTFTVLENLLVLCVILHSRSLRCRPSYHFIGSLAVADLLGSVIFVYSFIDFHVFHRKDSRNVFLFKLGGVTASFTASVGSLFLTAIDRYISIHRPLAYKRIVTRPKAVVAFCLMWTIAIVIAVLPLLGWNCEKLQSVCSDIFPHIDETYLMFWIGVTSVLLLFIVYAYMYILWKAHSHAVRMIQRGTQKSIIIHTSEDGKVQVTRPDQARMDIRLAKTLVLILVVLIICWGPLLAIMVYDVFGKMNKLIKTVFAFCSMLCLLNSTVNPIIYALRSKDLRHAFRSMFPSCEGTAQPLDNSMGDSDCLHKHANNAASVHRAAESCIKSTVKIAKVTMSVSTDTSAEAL
Where [1] appears, read: Human CB1 EC50 (uM), functional cAMP assay, CHO cells expressing human CB1.
Setting [2] is: functional cAMP assay, CHO cells expressing human CB1; read-out: Human CB1 EC50.
Setting [3] is: read-out: Human CB1 EC50; functional cAMP assay, CHO cells expressing human CB1.

Like-named read-outs stand apart in the source and are kept apart here. A value given as a limit tells only on which side of the number the result lay.

`Cc1nc([C@](C)(NC(=O)c2cc(OCC(F)(F)F)c(N3CC(F)(F)C3)cn2)C2CC2)no1` (single isomer, unassigned; enantiomer a) [Example 87, 5-(3,3-Difluoro-azetidin-1-yl)-4-(2,2,2-trifluoro-ethoxy)-pyridine-2-carboxylic acid [1-cyclopropyl-1-(5-methyl-[1,2,4]oxadiazol-3-yl)-ethyl]-amide (enantiomer A)]: the results for the EC50 at human CB2 receptors (Human CB2 EC50 (uM)) and on human CB1 receptors (setting [1]) were 0.0568 µM and greater than 10 µM, respectively.

Regarding `CNC(=O)CC(C)(NC(=O)c1cc(OCC(F)(F)F)c(C2CC2)cn1)C1CC1` (single isomer, unassigned) [Example 241, 5-cyclopropyl-N-[2-cyclopropyl-4-(methylamino)-4-oxobutan-2-yl]-4-(2,2,2-trifluoroethoxy)pyridine-2-carboxamide], the EC50 was 0.0119 µM on human CB2 receptors (Human CB2 EC50 (uM)) and greater than 10 µM on human CB1 receptors (setting [1]).

Consider `CC(CC(N)=O)(NC(=O)c1cc(OCC(F)(F)F)c(C2(F)CCC2)cn1)C1CC1` (single isomer, unassigned) [Example 309, N-[4-amino-2-cyclopropyl-4-oxobutan-2-yl]-5-(1-fluorocyclobutyl)-4-(2,2,2-trifluoroethoxy)pyridine-2-carboxamide], for which the results for the EC50 on human CB2 receptors (Human CB2 EC50 (uM)) and on human CB1 receptors (setting [1]) were 0.002 µM and 0.475 µM, respectively.

With `C[C@H](Oc1cc(C(=O)NC(c2noc(N)n2)C(C)(C)C)ncc1C1CC1)C(F)(F)F` (stereo partly drawn) [Example 218, N-[1-(5-amino-1,2,4-oxadiazol-3-yl)-2,2-dimethylpropyl]-5-cyclopropyl-4-[(2S)-1,1,1-trifluoropropan-2-yl]oxypyridine-2-carboxamide], the EC50 on human CB2 receptors (read-out: Human CB2 EC50) was 0.0068 µM; at human CB1 receptors (setting [2]) it was greater than 10 µM.

For `CC(CC(N)=O)(NC(=O)c1cc(OCC(F)F)c(C2CC2)cn1)C1CC1` (single isomer, unassigned) [Example 273, N-[4-amino-2-cyclopropyl-4-oxobutan-2-yl]-5-cyclopropyl-4-(2,2-difluoroethoxy)pyridine-2-carboxamide], the EC50 is 0.0017 µM at human CB2 receptors (Human CB2 EC50 (uM)) and greater than 10 µM at human CB1 receptors (setting [3]).

`CC(CC(N)=O)(NC(=O)c1cc(OCCF)c(C2CC2)cn1)C1CC1` (single isomer, unassigned) [Example 271, N-[4-amino-2-cyclopropyl-4-oxobutan-2-yl]-5-cyclopropyl-4-(2-fluoroethoxy)pyridine-2-carboxamide]: the EC50 on human CB2 receptors (Human CB2 EC50 (uM)) was 0.0015 µM; at human CB1 receptors (setting [3]), greater than 10 µM.

For the compound `CC(C)[C@](C)(CO)NC(=O)c1cc(Cc2ccc(F)cc2)c(Cl)cn1` [Example 15, 5-Chloro-4-(4-fluoro-benzyl)-pyridine-2-carboxylic acid ((R)-1-hydroxymethyl-1,2-dimethyl-propyl)-amide], the EC50 at human CB2 receptors (read-out: Human CB2 EC50) is 0.0058 µM; at human CB1 receptors (setting [2]), greater than 10 µM.

Consider `CNC(=O)CC1(NC(=O)c2cc(OCC(F)(F)F)c(N3CC(F)(F)C3)cn2)COC1` [Example 233, 5-(3,3-difluoroazetidin-1-yl)-N-[3-[2-(methylamino)-2-oxoethyl]oxetan-3-yl]-4-(2,2,2-trifluoroethoxy)pyridine-2-carboxamide], for which the EC50 is 0.915 µM on human CB2 receptors (read-out: Human CB2 EC50) and greater than 10 µM on human CB1 receptors (setting [2]).

For the compound `CC(C)(C#N)NC(=O)c1cc(OCC2CC2)c(Cl)cn1` [Example 8, 5-Chloro-4-cyclopropylmethoxy-pyridine-2-carboxylic acid (cyano-dimethyl-methyl)-amide], the EC50 at human CB2 receptors (read-out: Human CB2 EC50) is 0.159 µM; on human CB1 receptors (setting [2]), greater than 10 µM.

As to `Cc1nc(C(NC(=O)c2cc(OCC(F)(F)F)c(C3CC3)cn2)C(C)(C)C)no1` (centres unmarked) [Example 161, 5-cyclopropyl-N-[2,2-dimethyl-1-(5-methyl-1,2,4-oxadiazol-3-yl)propyl]-4-(2,2,2-trifluoroethoxy)pyridine-2-carboxamide], the EC50 at human CB2 receptors (read-out: Human CB2 EC50) is 0.0088 µM; on human CB1 receptors (setting [2]), greater than 10 µM.

As to `C[C@H](Oc1cc(C(=O)NC(C)(CC(N)=O)C2CC2)ncc1C1(F)COC1)C(F)(F)F` (single isomer, unassigned) [Example 278], the EC50 at human CB2 receptors (Human CB2 EC50 (uM)) is 0.0929 µM; on human CB1 receptors (setting [3]) it was greater than 10 µM.

Consider `Cn1nnnc1C(NC(=O)c1cc(OCC(F)(F)F)c(C2CC2)cn1)C(C)(C)C` (single isomer, unassigned) [Example 205, 5-cyclopropyl-N-[2,2-dimethyl-1-(1-methyltetrazol-5-yl)propyl]-4-(2,2,2-trifluoroethoxy)pyridine-2-carboxamide], for which the EC50 was 0.108 µM on human CB2 receptors (Human CB2 EC50 (uM)) and greater than 10 µM on human CB1 receptors (setting [1]).

As to `Cn1nnc(C(NC(=O)c2cc(OCC(F)(F)F)c(C3CC3)cn2)C(C)(C)C)n1` (single isomer, unassigned) [Example 209, 5-cyclopropyl-N-[2,2-dimethyl-1-(2-methyltetrazol-5-yl)propyl]-4-(2,2,2-trifluoroethoxy)pyridine-2-carboxamide], the EC50 at human CB2 receptors (Human CB2 EC50 (uM)) was 0.0048 µM; at human CB1 receptors (setting [1]), greater than 10 µM.

For `Cc1nc(C(C)(CC2CC2)NC(=O)c2cc(O[C@@H](C)C(F)(F)F)c(C3(F)COC3)cn2)no1` (stereo partly drawn) [Example 171, N-[1-cyclopropyl-2-(5-methyl-1,2,4-oxadiazol-3-yl)propan-2-yl]-5-(3-fluorooxetan-3-yl)-4-[(2S)-1,1,1-trifluoropropan-2-yl]oxypyridine-2-carboxamide], the half-maximal effective concentration (EC50) at human CB2 receptors (read-out: Human CB2 EC50) was 0.0149 µM; at human CB1 receptors (setting [2]), greater than 10 µM.

On to `CNC(=O)C(NC(=O)c1cc(OCC(F)(F)F)c(C2CC2)cn1)C(C)(C)C` (single isomer, unassigned) [Example 224, 5-cyclopropyl-N-[3,3-dimethyl-1-(methylamino)-1-oxobutan-2-yl]-4-(2,2,2-trifluoroethoxy)pyridine-2-carboxamide], for which the values for the EC50 on human CB2 receptors (Human CB2 EC50 (uM)) and on human CB1 receptors (setting [1]) were 0.0573 µM and greater than 10 µM, respectively.

With `Cn1nnc(C(C)(CC2CC2)NC(=O)c2cc(OCC(F)(F)F)c(C3CC3)cn2)n1` (centres unmarked) [Example 150, 5-cyclopropyl-N-[1-cyclopropyl-2-(2-methyltetrazol-5-yl)propan-2-yl]-4-(2,2,2-trifluoroethoxy)pyridine-2-carboxamide], the results for the concentration for a half-maximal effect (EC50) at human CB2 receptors (read-out: Human CB2 EC50) and at human CB1 receptors (setting [2]) were 0.109 µM and greater than 10 µM, respectively.

Regarding `Cc1nc(C(C)(CS(C)(=O)=O)NC(=O)c2cc(OCC(F)(F)F)c(C3CCC3)cn2)no1` (single isomer, unassigned) [Example 125, 5-cyclobutyl-N-[1-methyl-1-(5-methyl-1,2,4-oxadiazol-3-yl)-2-methylsulfonyl-ethyl]-4-(2,2,2-trifluoroethoxy)pyridine-2-carboxamide], the concentration giving a half-maximal response (EC50) was 0.011 µM on human CB2 receptors (Human CB2 EC50 (uM)) and greater than 10 µM at human CB1 receptors (setting [3]).

Consider `CC(CF)Oc1cc(C(=O)NC2(CC(N)=O)CS(=O)(=O)C2)ncc1C1CC1` (single isomer, unassigned) [Example 292, N-[3-(2-amino-2-oxoethyl)-1,1-dioxothietan-3-yl]-5-cyclopropyl-4-[1-fluoropropan-2-yl]oxypyridine-2-carboxamide], for which the EC50 on human CB2 receptors (Human CB2 EC50 (uM)) was 0.0019 µM; on human CB1 receptors (setting [3]) it was greater than 10 µM.

As to `Cn1nnnc1C(C)(CC1CC1)NC(=O)c1cc(OCC(F)(F)F)c(C2CC2)cn1` (single isomer, unassigned) [Example 228, 5-cyclopropyl-N-[1-cyclopropyl-2-(1-methyltetrazol-5-yl)propan-2-yl]-4-(2,2,2-trifluoroethoxy)pyridine-2-carboxamide], the EC50 on human CB2 receptors (Human CB2 EC50 (uM)) is 0.0346 µM; on human CB1 receptors (setting [1]), greater than 10 µM.

As to `CCC(CC)(CO)NC(=O)c1cc(OCC(F)(F)F)c(C2CC2)cn1` [Example 54, 5-Cyclopropyl-4-(2,2,2-trifluoro-ethoxy)-pyridine-2-carboxylic acid (1-ethyl-1-hydroxymethyl-propyl)-amide], the figures for the EC50 on human CB2 receptors (read-out: Human CB2 EC50) and on human CB1 receptors (setting [2]) were 0.0185 µM and greater than 10 µM, respectively.

For the compound `Cc1nc(C(C)(NC(=O)c2cc(OCC(F)(F)F)c(N3CCC(F)(F)C3)cn2)C2CC2)no1` (centres unmarked) [Example 79, 5-(3,3-Difluoro-pyrrolidin-1-yl)-4-(2,2,2-trifluoro-ethoxy)-pyridine-2-carboxylic acid [1-cyclopropyl-1-(5-methyl-[1,2,4]oxadiazol-3-yl)-ethyl]-amide], the figures for the EC50 on human CB2 receptors (read-out: Human CB2 EC50) and on human CB1 receptors (setting [2]) were 0.0065 µM and 0.19 µM, respectively.

In the case of `Cc1nc(C(C)(NC(=O)c2cc(OCC(F)(F)F)c(C3(F)COC3)cn2)C2CC2)no1` (centres unmarked) [Example 139, N-[1-cyclopropyl-1-(5-methyl-1,2,4-oxadiazol-3-yl)ethyl]-5-(3-fluorooxetan-3-yl)-4-(2,2,2-trifluoroethoxy)pyridine-2-carboxamide], the values for the EC50 at human CB2 receptors (read-out: Human CB2 EC50) and at human CB1 receptors (setting [2]) were 0.0006 µM and greater than 10 µM, respectively.
